# Results as given in patent publication US9302999B2, “Substituted triazoles as herbicides” (E. I. DU PONT DE NEMOURS AND COMPANY, priority 2012, dated 2016).
# What was measured:
# Format in all cases: in vivo
# kochia (Kochia scoparia) = test: Test C pre-/postemergence: kochia
# Outline: (§1)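 Visual injury scored 0–100 (100 = complete control) against untreated controls after 13–15 greenhouse days. Surfactant-containing solvent formulations applied either to soil after sowing (loam/sand) or over 1- to 4-leaf plants, 2–18 cm tall.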
# rice (Oryza sativa) = test: Test B flooded paddy: rice; conditions: Flood; 250 g ai/ha; applied to paddy water at 2-leaf stage; visually evaluated after 13 to 15 days
# Outline: (§2)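 Two-leaf-stage plants, pots flooded (3 cm above soil) and treated through the water, which stayed at that depth. After 13–15 days in greenhouse conditions, visual assessment versus controls: 0 is no effect, 100 complete control, dash means no result.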
# soybean (Glycine max) = test: Test C pre-/postemergence: soybean
# Outline: as §1
# [1] = test system: pigweed (Amaranthus retroflexus); test: Test C pre-/postemergence: pigweed
# Outline: as §1
# [2] = test system: blackgrass (Alopecurus myosuroides); test: Test C pre-/postemergence: blackgrass
# Outline: as §1
# [3] = test system: barnyardgrass (Echinochloa crus-galli); test: Test B flooded paddy: barnyardgrass; conditions: Flood; 250 g ai/ha; applied to paddy water at 2-leaf stage; visually evaluated after 13 to 15 days
# Outline: as §2
# [4] = test system: winter wheat (Triticum aestivum); test: Test C pre-/postemergence: winter wheat
# Outline: as §1
# [5] = test system: foxtail, giant (giant foxtail, Setaria faberii); test: Test C pre-/postemergence: foxtail, giant
# Outline: as §1
# [6] = test system: johnsongrass (Sorghum halepense); test: Test C pre-/postemergence: johnsongrass
# Outline: as §1
# [7] = test system: velvetleaf (Abutilon theophrasti); test: Test C pre-/postemergence: velvetleaf
# Outline: as §1
# corn (Zea mays) = test: Test C pre-/postemergence: corn
# Outline: as §1
# [8] = Postemergence, 31 g ai/ha, scale 0 to 100 (0 no effect, 100 complete control)
# [9] = Postemergence, 62 g ai/ha, scale 0 to 100 (0 no effect, 100 complete control)
# [10] = Postemergence, 125 g ai/ha, scale 0 to 100, 0 no effect, 100 complete control
# [11] = Postemergence, 250 g ai/ha, scale 0 to 100
# [12] = Preemergence, 31 g ai/ha, scale of 0 to 100, 0 is no effect, 100 is complete control
# [13] = Preemergence, 62 g ai/ha, scale of 0 to 100, 0 is no effect, 100 is complete control
# [14] = Preemergence, 125 g ai/ha, scale 0 to 100, 0 no effect, 100 complete control
# [15] = Preemergence, 250 g ai/ha, scale 0 to 100, 0 no effect, 100 complete control
compound,measurement,setting,value
COc1nn(-c2ccc(C(F)(F)F)cc2)nc1Cc1ccnc(C(F)F)c1 [Compound 138],"Plant response rating, Kochia",kochia (Kochia scoparia); [8],95
same,"Plant response rating, Kochia",kochia (Kochia scoparia); [9],95
same,"Plant response rating, Kochia",kochia (Kochia scoparia); [10],98
same,"Plant response rating, Kochia",kochia (Kochia scoparia); [11],98
same,"Plant response rating, Kochia",kochia (Kochia scoparia); [12],55
same,"Plant response rating, Kochia",kochia (Kochia scoparia); [13],65
same,"Plant response rating, Kochia",kochia (Kochia scoparia); [14],85
same,"Plant response rating, Kochia",kochia (Kochia scoparia); [15],90
same,"Plant response rating, Rice (0 to 100 scale, 0 is no effect, 100 is complete control)",rice (Oryza sativa),50
same,"Plant response rating, Soybean",soybean (Glycine max); [8],55
same,"Plant response rating, Soybean",soybean (Glycine max); [9],70
same,"Plant response rating, Soybean",soybean (Glycine max); [10],80
same,"Plant response rating, Soybean",soybean (Glycine max); [11],80
same,"Plant response rating, Soybean",soybean (Glycine max); [12],5
same,"Plant response rating, Soybean",soybean (Glycine max); [13],20
same,"Plant response rating, Soybean",soybean (Glycine max); [15],30
same,"Plant response rating, Pigweed",[1]; [8],98
same,"Plant response rating, Pigweed",[1]; [9],98
same,"Plant response rating, Pigweed",[1]; [10],98
same,"Plant response rating, Pigweed",[1]; [11],100
same,"Plant response rating, Pigweed",[1]; [12],98
same,"Plant response rating, Pigweed",[1]; [13],100
same,"Plant response rating, Pigweed",[1]; [14],100
same,"Plant response rating, Pigweed",[1]; [15],100
same,"Plant response rating, Blackgrass",[2]; [8],20
same,"Plant response rating, Blackgrass",[2]; [9],40
same,"Plant response rating, Blackgrass",[2]; [10],40
same,"Plant response rating, Blackgrass",[2]; [11],45
same,"Plant response rating, Blackgrass",[2]; [12],90
same,"Plant response rating, Blackgrass",[2]; [13],95
same,"Plant response rating, Blackgrass",[2]; [14],95
same,"Plant response rating, Blackgrass",[2]; [15],95
same,"Plant response rating, Barnyardgrass (0 to 100 scale, 0 is no effect, 100 is complete control)",[3],80
same,"Plant response rating, Wheat",[4]; [8],10
same,"Plant response rating, Wheat",[4]; [9],10
same,"Plant response rating, Wheat",[4]; [10],35
same,"Plant response rating, Wheat",[4]; [11],35
same,"Plant response rating, Wheat",[4]; [13],5
same,"Plant response rating, Wheat",[4]; [14],10
same,"Plant response rating, Wheat",[4]; [15],50
same,"Plant response rating, Foxtail, Giant",[5]; [8],20
same,"Plant response rating, Foxtail, Giant",[5]; [9],55
same,"Plant response rating, Foxtail, Giant",[5]; [10],55
same,"Plant response rating, Foxtail, Giant",[5]; [11],95
same,"Plant response rating, Foxtail, Giant",[5]; [12],98
same,"Plant response rating, Foxtail, Giant",[5]; [13],100
same,"Plant response rating, Foxtail, Giant",[5]; [14],100
same,"Plant response rating, Foxtail, Giant",[5]; [15],100
same,"Plant response rating, Johnsongrass",[6]; [8],45
same,"Plant response rating, Johnsongrass",[6]; [9],45
same,"Plant response rating, Johnsongrass",[6]; [10],45
same,"Plant response rating, Johnsongrass",[6]; [11],95
same,"Plant response rating, Johnsongrass",[6]; [12],45
same,"Plant response rating, Johnsongrass",[6]; [13],85
same,"Plant response rating, Johnsongrass",[6]; [14],98
same,"Plant response rating, Johnsongrass",[6]; [15],100
same,"Plant response rating, Velvetleaf",[7]; [8],50
same,"Plant response rating, Velvetleaf",[7]; [9],75
same,"Plant response rating, Velvetleaf",[7]; [10],80
same,"Plant response rating, Velvetleaf",[7]; [11],90
same,"Plant response rating, Velvetleaf",[7]; [12],5
same,"Plant response rating, Velvetleaf",[7]; [14],55
same,"Plant response rating, Velvetleaf",[7]; [15],98
same,"Plant response rating, Corn",corn (Zea mays); [12],20
same,"Plant response rating, Corn",corn (Zea mays); [13],30
same,"Plant response rating, Corn",corn (Zea mays); [14],40
same,"Plant response rating, Corn",corn (Zea mays); [15],55
COc1nn(-c2cccc(F)c2)nc1Cc1ccnc(C(F)(F)F)c1 [Compound 139],"Plant response rating, Kochia",kochia (Kochia scoparia); [8],85
same,"Plant response rating, Kochia",kochia (Kochia scoparia); [9],85
same,"Plant response rating, Kochia",kochia (Kochia scoparia); [10],90
same,"Plant response rating, Kochia",kochia (Kochia scoparia); [11],90
same,"Plant response rating, Kochia",kochia (Kochia scoparia); [12],65
same,"Plant response rating, Kochia",kochia (Kochia scoparia); [13],75
same,"Plant response rating, Kochia",kochia (Kochia scoparia); [14],90
same,"Plant response rating, Kochia",kochia (Kochia scoparia); [15],100
same,"Plant response rating, Rice (0 to 100 scale, 0 is no effect, 100 is complete control)",rice (Oryza sativa),45
same,"Plant response rating, Soybean",soybean (Glycine max); [8],40
same,"Plant response rating, Soybean",soybean (Glycine max); [9],40
same,"Plant response rating, Soybean",soybean (Glycine max); [10],45
same,"Plant response rating, Soybean",soybean (Glycine max); [11],45
same,"Plant response rating, Soybean",soybean (Glycine max); [12],5
same,"Plant response rating, Soybean",soybean (Glycine max); [13],15
same,"Plant response rating, Soybean",soybean (Glycine max); [14],25
same,"Plant response rating, Soybean",soybean (Glycine max); [15],25
same,"Plant response rating, Pigweed",[1]; [8],95
same,"Plant response rating, Pigweed",[1]; [9],98
same,"Plant response rating, Pigweed",[1]; [10],98
same,"Plant response rating, Pigweed",[1]; [11],98
same,"Plant response rating, Pigweed",[1]; [12],98
same,"Plant response rating, Pigweed",[1]; [13],98
same,"Plant response rating, Pigweed",[1]; [14],100
same,"Plant response rating, Pigweed",[1]; [15],100
same,"Plant response rating, Blackgrass",[2]; [8],35
same,"Plant response rating, Blackgrass",[2]; [9],40
same,"Plant response rating, Blackgrass",[2]; [10],70
same,"Plant response rating, Blackgrass",[2]; [11],70
same,"Plant response rating, Blackgrass",[2]; [12],45
same,"Plant response rating, Blackgrass",[2]; [13],90
same,"Plant response rating, Blackgrass",[2]; [14],90
same,"Plant response rating, Blackgrass",[2]; [15],90
same,"Plant response rating, Barnyardgrass (0 to 100 scale, 0 is no effect, 100 is complete control)",[3],65
same,"Plant response rating, Wheat",[4]; [8],10
same,"Plant response rating, Wheat",[4]; [9],10
same,"Plant response rating, Wheat",[4]; [10],40
same,"Plant response rating, Wheat",[4]; [11],40
same,"Plant response rating, Wheat",[4]; [13],0
same,"Plant response rating, Wheat",[4]; [14],10
same,"Plant response rating, Wheat",[4]; [15],20
same,"Plant response rating, Foxtail, Giant",[5]; [8],15
same,"Plant response rating, Foxtail, Giant",[5]; [9],30
same,"Plant response rating, Foxtail, Giant",[5]; [10],40
same,"Plant response rating, Foxtail, Giant",[5]; [11],75
same,"Plant response rating, Foxtail, Giant",[5]; [12],95
same,"Plant response rating, Foxtail, Giant",[5]; [13],100
same,"Plant response rating, Foxtail, Giant",[5]; [14],100
same,"Plant response rating, Foxtail, Giant",[5]; [15],100
same,"Plant response rating, Johnsongrass",[6]; [8],30
same,"Plant response rating, Johnsongrass",[6]; [9],50
same,"Plant response rating, Johnsongrass",[6]; [10],80
same,"Plant response rating, Johnsongrass",[6]; [11],80
same,"Plant response rating, Johnsongrass",[6]; [12],15
same,"Plant response rating, Johnsongrass",[6]; [13],45
same,"Plant response rating, Johnsongrass",[6]; [14],100
same,"Plant response rating, Johnsongrass",[6]; [15],100
same,"Plant response rating, Velvetleaf",[7]; [8],20
same,"Plant response rating, Velvetleaf",[7]; [9],35
same,"Plant response rating, Velvetleaf",[7]; [10],70
same,"Plant response rating, Velvetleaf",[7]; [11],75
same,"Plant response rating, Velvetleaf",[7]; [12],0
same,"Plant response rating, Velvetleaf",[7]; [13],10
same,"Plant response rating, Velvetleaf",[7]; [14],40
same,"Plant response rating, Velvetleaf",[7]; [15],40
same,"Plant response rating, Corn",corn (Zea mays); [9],25
same,"Plant response rating, Corn",corn (Zea mays); [10],55
same,"Plant response rating, Corn",corn (Zea mays); [11],60
same,"Plant response rating, Corn",corn (Zea mays); [12],0
same,"Plant response rating, Corn",corn (Zea mays); [13],0
same,"Plant response rating, Corn",corn (Zea mays); [14],10
same,"Plant response rating, Corn",corn (Zea mays); [15],30
Cc1nn(-c2ccnc(Cl)c2)nc1Cc1ccnc(C(F)(F)F)c1 [Compound 141],"Plant response rating, Kochia",kochia (Kochia scoparia); [8],85
same,"Plant response rating, Kochia",kochia (Kochia scoparia); [9],90
same,"Plant response rating, Kochia",kochia (Kochia scoparia); [10],90
same,"Plant response rating, Kochia",kochia (Kochia scoparia); [11],90
same,"Plant response rating, Rice (0 to 100 scale, 0 is no effect, 100 is complete control)",rice (Oryza sativa),35
same,"Plant response rating, Soybean",soybean (Glycine max); [8],40
same,"Plant response rating, Soybean",soybean (Glycine max); [9],55
same,"Plant response rating, Soybean",soybean (Glycine max); [10],55
same,"Plant response rating, Soybean",soybean (Glycine max); [11],65
same,"Plant response rating, Pigweed",[1]; [8],95
same,"Plant response rating, Pigweed",[1]; [9],95
same,"Plant response rating, Pigweed",[1]; [10],98
same,"Plant response rating, Pigweed",[1]; [11],98
same,"Plant response rating, Blackgrass",[2]; [8],20
same,"Plant response rating, Blackgrass",[2]; [9],20
same,"Plant response rating, Blackgrass",[2]; [10],35
same,"Plant response rating, Blackgrass",[2]; [11],75
same,"Plant response rating, Barnyardgrass (0 to 100 scale, 0 is no effect, 100 is complete control)",[3],20
same,"Plant response rating, Wheat",[4]; [8],10
same,"Plant response rating, Wheat",[4]; [9],15
same,"Plant response rating, Wheat",[4]; [10],20
same,"Plant response rating, Wheat",[4]; [11],20
same,"Plant response rating, Foxtail, Giant",[5]; [8],10
same,"Plant response rating, Foxtail, Giant",[5]; [9],20
same,"Plant response rating, Foxtail, Giant",[5]; [10],45
same,"Plant response rating, Foxtail, Giant",[5]; [11],80
same,"Plant response rating, Johnsongrass",[6]; [8],10
same,"Plant response rating, Johnsongrass",[6]; [9],10
same,"Plant response rating, Johnsongrass",[6]; [10],15
same,"Plant response rating, Johnsongrass",[6]; [11],15
same,"Plant response rating, Velvetleaf",[7]; [8],40
same,"Plant response rating, Velvetleaf",[7]; [9],55
same,"Plant response rating, Velvetleaf",[7]; [10],60
same,"Plant response rating, Velvetleaf",[7]; [11],60
same,"Plant response rating, Corn",corn (Zea mays); [8],45
same,"Plant response rating, Corn",corn (Zea mays); [9],45
same,"Plant response rating, Corn",corn (Zea mays); [10],55
same,"Plant response rating, Corn",corn (Zea mays); [11],60
